Data from patent US4003887A, “Novel penicillins and their preparation” (Sumitomo Chemical Company, Limited, priority 1972, dated 1977).
In brackets after ≈: the same amount, converted by molar mass.

System: Klebsiella pneumoniae PC1602
Test: Minimal inhibitory concentration, agar dilution method
Assay type: cell-based
Description: When determined according to the agar dilution method, the penicillins (I) afford the minimal inhibitory concentrations against test microorganisms as shown in Table 2.

Compound | MIC [µg/mL]
CC1(C)S[C@@H]2[C@H](NC(=O)C(NC(=O)c3cnc4cccnc4c3O)c3ccc(O)cc3)C(=O)N2[C@H]1C(=O)O (mixture of isomers) [Example 2, DL-α-(4-hydroxy-1,5-naphthyridine-3-carboxamido)-p-hydroxybenzylpenicillin] | 25
CCOC(=O)Oc1ccc(C(NC(=O)c2cnc3ccc(N(C)C)nc3c2O)C(=O)N[C@@H]2C(=O)N3[C@@H]2SC(C)(C)[C@@H]3C(=O)O)cc1 (mixture of isomers) [Example 3, DL-α-(4-hydroxy-6-dimethylamino-1,5-naphthyridine-3-carboxamido)-p-ethoxycarbonyloxybenzylpenicillin] | 3.13
CC1(C)S[C@@H]2[C@H](NC(=O)C(NC(=O)c3cnc4ccccc4c3O)c3ccc(O)cc3)C(=O)N2[C@H]1C(=O)O (mixture of isomers) [Example 6, DL-α-(4-hydroxyquinoline-3-carboxamido)-p-hydroxybenzylpenicillin] | 25
CC1(C)S[C@@H]2[C@H](NC(=O)C(C(=O)O)c3ccccc3)C(=O)N2[C@H]1C(=O)O (stereo partly shown) [Carbenicillin, reference compound] | > 200
CC1(C)S[C@@H]2[C@H](NC(=O)[C@H](NC(=O)c3cnc4cccnc4c3O)c3ccc(O)cc3)C(=O)N2[C@H]1C(=O)O [Example 1, D-α-(4-hydroxy-1,5-naphthyridine-3-carboxyamido)-p-hydroxybenzylpenicillin] | 12.5 (≈ 23.3 µM)
CC(C)(C)C(=O)Oc1ccc([C@@H](NC(=O)c2cnc3ccccc3c2O)C(=O)N[C@@H]2C(=O)N3[C@@H]2SC(C)(C)[C@@H]3C(=O)O)cc1 [Example 4, D-α-(4-hydroxyquinoline-3-carboxamido)-p-pivaloyloxybenzylpenicillin] | 12.5 (≈ 20.1 µM)
CCOC(=O)Oc1c(C(=O)N[C@@H](C(=O)N[C@@H]2C(=O)N3[C@@H]2SC(C)(C)[C@@H]3C(=O)O)c2ccc(OC(=O)OCc3ccccc3)cc2)cnc2cccnc12 [Example 5, D-α-(4-ethoxycarbonyloxy-1,5-naphthyridine-3-carboxamido)-p-benzyloxycarbonyloxybenzylpenicillin] | 12.5 (≈ 16.8 µM)
Cc1ccc2c(O)c(C(=O)N[C@@H](C(=O)N[C@@H]3C(=O)N4[C@@H]3SC(C)(C)[C@@H]4C(=O)O)c3ccc(O)cc3)cnc2n1 [Example 7, D-α-(4-hydroxy-7-methyl-1,8-naphthyridine-3-carboxamido)-p-hydroxybenzylpenicillin] | 12.5 (≈ 22.7 µM)
CC1(C)S[C@@H]2[C@H](NC(=O)[C@H](NC(=O)c3nnc4ccccc4c3O)c3ccc(O)cc3)C(=O)N2[C@H]1C(=O)O [Example 8, D-α-(4-hydroxycinnoline-3-carboxamido)-p-hydroxybenzylpenicillin] | 25 (≈ 46.5 µM)
CCOC(=O)Oc1ccc([C@@H](NC(=O)c2cnc3cccnc3c2O)C(=O)N[C@@H]2C(=O)N3[C@@H]2SC(C)(C)[C@@H]3C(=O)O)cc1 [Example 9, D-α-(4-hydroxy-1,5-naphthyridine-3-carboxamido)-p-ethoxycarbonyloxybenzylpenicillin] | 12.5 (≈ 20.5 µM)
CCOC(=O)Oc1ccc([C@@H](NC(=O)c2cnc3cc(Cl)ccc3c2O)C(=O)N[C@@H]2C(=O)N3[C@@H]2SC(C)(C)[C@@H]3C(=O)O)cc1 [Example 10] | 3.13 (≈ 4.87 µM)
CC1(C)S[C@@H]2[C@H](NC(=O)[C@H](NC(=O)c3cnc4cc(C(F)(F)F)ccc4c3O)c3ccc(O)cc3)C(=O)N2[C@H]1C(=O)O [Example 11] | 0.78 (≈ 1.29 µM)
CCOC(=O)Oc1ccc([C@@H](NC(=O)c2cnc3ccccc3c2OC(=O)OCC)C(=O)N[C@@H]2C(=O)N3[C@@H]2SC(C)(C)[C@@H]3C(=O)O)cc1 [Example 12] | 25 (≈ 36.7 µM)
CC1(C)S[C@@H]2[C@H](NC(=O)[C@H](NC(=O)c3cnc4ccccc4c3O)c3cccc(O)c3)C(=O)N2[C@H]1C(=O)O [Example 13] | 25 (≈ 46.6 µM)
CC1(C)S[C@@H]2[C@H](NC(=O)[C@H](NC(=O)c3cnc4ccccc4c3O)c3ccc(O)c(Cl)c3)C(=O)N2[C@H]1C(=O)O [Example 14] | 25 (≈ 43.8 µM)
CCOC(=O)Oc1ccc([C@@H](NC(=O)c2cnc3nc(C)ccc3c2O)C(=O)N[C@@H]2C(=O)N3[C@@H]2SC(C)(C)[C@@H]3C(=O)O)cc1 [Example 15] | 12.5 (≈ 20 µM)
